Patent US10071112B2, “Vitamin E-nucleoside prodrugs” (EPIGENETICS PHARMA LLC, priority 2014, dated 2018)
Structures can show the parent of a compound that is named as a salt. Where two headings read alike, the source gives them in different places.

How the values were obtained:
NCI-H460 = test: In vitro cytotoxicity / growth inhibition, SRB assay, 72 hr, non-small cell lung cancer cells; format: cell-based; conditions: for IC50: Table 2; for GI50: 72 hr
Description: (§1) In general, growth inhibitory effects of gemcitabine and prodrugs were evaluated in breast (MDA), lung (H460) and colon (H116) cancer cell lines by seeding the cell lines in 96-wells plates and exposing the cells to various drug concentrations for 72 hr. Standard sulforhodamine B (SRB) assay was then performed.

MDA-MB-231 = test: In vitro cytotoxicity / growth inhibition, SRB assay, 72 hr, breast cancer cells; format: cell-based; conditions: for IC50: Table 2; for GI50: 72 hr
Description: as §1

HCT-116 = test: In vitro cytotoxicity / growth inhibition, SRB assay, 72 hr, colon cancer cells; format: cell-based; conditions: for IC50: Table 2, HCT-116; for GI50: 72 hr
Description: as §1

pancreatic cancer = conditions: clinical trials, patients with pancreatic cancer; cited from earlier work
[1] = blank human plasma matrix, room temperature, at least 4 hours; cited from earlier work
CEM WT = test: Activity in wild type leukemic CEM cells; format: cell-based; conditions: for IC50: Homo sapiens, CCRF-CEM, CEM WT (dCK wild type) cells
Description: (§2) To further confirm that tocopherol/tocotrienol-modified drugs are imported as intact molecules and then dissociate intracellularly into monophosphorylated nucleoside and carrier, i.e., tocopherol/tocotrienol, Compound 2 was tested for activity against gemcitabine in wild type (WT) leukemic CEM cells and CEM cells without deoxycytidine kinase (dCK). In the absence of dCK, gemcitabine is not phosphorylated to gemcitabine monophosphate a precursor to the therapeutically active di- and triphosphates.

CEM dCK(—) = test: Activity in CEM cells without deoxycytidine kinase; format: cell-based; conditions: for increase of IC50 from dCK WT cells to dCK (−) cells: CEM dCK(−) vs CEM WT; for IC50: Homo sapiens, CCRF-CEM, CEM dCK(—) cells
Description: as §2

[2] = Aqueous solubility determination; format: physicochemical
Description: In addition, chromatographic purity (%) was defined as the peak area of the principal peak relative to the total integrated peak area in the HPLC chromatogram of the calibration standard. A chromatogram of the calibration standard of each test compound, along with a UV/VIS spectrum with labeled absorbance maxima, was generated.

[3] = Intrinsic clearance / metabolic stability in liver microsomes; format: in vitro ADME; conditions: human liver microsomes
Description: Metabolic stability, expressed as percent of the parent compound remaining, was calculated by comparing the peak area of the compound at the time point relative to that at time-0. The half-life (T1/2) was estimated from the slope of the initial linear range of the logarithmic curve of compound remaining (%) vs. time, assuming the first-order kinetics. The apparent intrinsic clearance (CLint, in μL/min/pmol, μL/min/mg or μL/min/Mcell) was calculated according to the following formula: CLint=[…](mg protein/μL or million cells/μL or pmol CYP isozyme/μL)

[4] = Homo sapiens, NCI-H460, absence of dipyridamole (control), read-out: GI50 SRB, H460 Lung
[5] = Homo sapiens, NCI-H460, presence of 1 μM dipyridamole, read-out: GI50 SRB, H460 Lung, dipyridamole
[6] = Homo sapiens, MDA-MB-231, absence of dipyridamole (control), read-out: GI50 SRB, MDA Breast
[7] = Homo sapiens, MDA-MB-231, presence of 1 μM dipyridamole, read-out: GI50 SRB, MDA Breast, dipyridamole
[8] = Homo sapiens, absence of dipyridamole (control), read-out: GI50 SRB, H116 Colon
[9] = Homo sapiens, presence of 1 μM dipyridamole, read-out: GI50 SRB, H116 Colon, dipyridamole

CC(C)=CCC/C(C)=C/CC/C(C)=C/CCC1(C)CCc2cc(OP(=O)(O)O)c(C)c(C)c2O1 (stereo not shown) [γ-tocotrienyl phosphate, reference compound] gave an IC50 (NCI-H460; NCI-H460) of 69.1 µM, an IC50 (MDA-MB-231; MDA-MB-231) of 26.4 µM and an IC50 (HCT-116) of 55.7 µM.

For Cc1c(C)c2c(c(C)c1OP(=O)(O)OC[C@H]1O[C@@H](n3ccc(N)nc3=O)C(F)(F)[C@@H]1O)CC[C@@](C)(CCC[C@H](C)CCC[C@H](C)CCCC(C)C)O2 [Compound 1, D-α-tocopheryl phosphate-5′-gemcitabine, triethylammonium salt], the IC50 (NCI-H460; Homo sapiens, NCI-H460) was 23.8 µM, the IC50 (MDA-MB-231; Homo sapiens, MDA-MB-231) was 22.7 µM and the IC50 (HCT-116; Homo sapiens) was 26.1 µM.

For CCCCCCCC/C=C/CCCCCCCC(=O)OC[C@H]1O[C@@H](n2ccc(N)nc2=O)C(F)(F)[C@@H]1O [elaidic acid prodrug], the survival versus gemcitabine (pancreatic cancer) is listed as “did not show any difference in survival”.

For CCCCCCCC/C=C/CCCCCCCC(=O)OC[C@H]1O[C@@H](n2cnc(N)nc2=O)[C@H](O)[C@@H]1O [5-azacytidine elaidic acid ester], the “percent of the initial amount remaining” value [1] is given as 94%.

In the case of Nc1ccn([C@@H]2O[C@H](CO)[C@@H](O)C2(F)F)c(=O)n1 [Gemcitabine, reference compound], the GI50 (NCI-H460; [4]) is reported as 0.02 µM, the GI50 (NCI-H460; [5]) is reported as 0.82 µM and the IC50 (NCI-H460; Homo sapiens, NCI-H460) is reported as 0.02 µM. For the same compound, the IC50 (CEM WT) was 0.002 µM, the “fold by which IC50 of gemcitabine was lower than Compound 2” value (CEM WT; dCK WT cells) was 295 fold and the “increase of IC50 from dCK WT cells to dCK (−) cells” value (CEM dCK(—)) was 62,250 fold. It also gave an IC50 (CEM dCK(—)) of 124 µM, a GI50 (MDA-MB-231; [6]) of 3.08 µM and a GI50 (MDA-MB-231; [7]) of 56.8 µM. It also gave an IC50 (MDA-MB-231; Homo sapiens, MDA-MB-231) of 0.11 µM, an IC50 (HCT-116; Homo sapiens) of 0.01 µM and a GI50 (HCT-116; [8]) of 0.03 µM. For the same compound, the GI50 (HCT-116; [9]) was 2.39 µM.

CC(C)=CCC/C(C)=C/CC/C(C)=C/CCC1(C)CCc2cc(OP(=O)(O)OC[C@H]3O[C@@H](n4ccc(N)nc4=O)C(F)(F)[C@@H]3O)c(C)c(C)c2O1 (stereo partly drawn) [Compound 3, D-γ-tocotrienyl phosphate-5′-gemcitabine, triethylammonium salt] gave an IC50 (NCI-H460; NCI-H460) of 4.75 µM, a GI50 (NCI-H460; absence of dipyridamole (control), read-out: GI50 SRB, H460 Lung) of 7.16 µM and a GI50 (NCI-H460; presence of 1 μM dipyridamole, read-out: GI50 SRB, H460 Lung, dipyridamole) of 16 µM. It also gave an IC50 (MDA-MB-231; MDA-MB-231) of 4.9 µM, a GI50 (MDA-MB-231; absence of dipyridamole (control), read-out: GI50 SRB, MDA Breast) of 30.3 µM and a GI50 (MDA-MB-231; presence of 1 μM dipyridamole, read-out: GI50 SRB, MDA Breast, dipyridamole) of 27.8 µM. The IC50 (HCT-116) was 4.01 µM, the GI50 (HCT-116; absence of dipyridamole (control), read-out: GI50 SRB, H116 Colon) was 5.55 µM and the GI50 (HCT-116; presence of 1 μM dipyridamole, read-out: GI50 SRB, H116 Colon, dipyridamole) was 12.6 µM.

“α-tocopheryl phosphate [reference compound]” showed an IC50 (NCI-H460; NCI-H460) of 52.2 µM, an IC50 (MDA-MB-231; MDA-MB-231) of 23.4 µM and an IC50 (HCT-116) of 46.9 µM.

Work on “δ-tocopheryl phosphate [reference compound]” yielded an IC50 (NCI-H460; NCI-H460) of 69.7 µM, an IC50 (MDA-MB-231; MDA-MB-231) of 29.6 µM and an IC50 (HCT-116) of 70.6 µM.

Cc1cc(OP(=O)(O)OC[C@H]2O[C@@H](n3ccc(N)nc3=O)C(F)(F)C2O)cc2c1O[C@](C)(CCC[C@H](C)CCC[C@H](C)CCCC(C)C)CC2 (stereo partly drawn) [Compound 2, D-δ-tocopheryl phosphate-5′-gemcitabine, triethylammonium salt] gave a GI50 (NCI-H460; [4]) of 2.14 µM, a GI50 (NCI-H460; [5]) of 1.47 µM and an IC50 (NCI-H460; Homo sapiens, NCI-H460) of 1.69 µM. The IC50 (CEM WT) was 0.59 µM, the “increase of IC50 from dCK WT cells to dCK (−) cells” value (CEM dCK(—)) was 32.5 fold and the IC50 (CEM dCK(—)) was 19.2 µM. For the same compound, the “fold by which IC50 of Compound 2 was lower than gemcitabine” value (CEM dCK(—); dCK (−) cells) was 6.5 fold, the solubility ([2]; PBS buffer, aqueous buffer, PBS (pH 7.4), read-out: aqueous solubility in PBS) was > 10000 µg/mL and the solubility ([2]; simulated intestinal fluid, fassgf or other biorelevant, read-out: aqueous solubility in simulated intestinal fluid) was > 200 µM. It also gave a GI50 (MDA-MB-231; [6]) of 17.2 µM, a GI50 (MDA-MB-231; [7]) of 23.3 µM and an IC50 (MDA-MB-231; Homo sapiens, MDA-MB-231) of 5.08 µM. For the same compound, the intrinsic clearance half-life [3] was “greater than 60 minutes”, the IC50 (HCT-116; Homo sapiens) was 3.67 µM and the GI50 (HCT-116; [8]) was 3.07 µM. It also gave a GI50 (HCT-116; [9]) of 6.74 µM.
